The conditions of data set [1]: Liquid; for mass density: 101.33 kPa.
The nature of data set [2]: refractive index (Na D-line) (dimensionless). As to conditions: 101.33 kPa, Liquid, Standard Abbe refractometry.

“And” between values parts separate entries of the source, which are not always exact repeats. Identical values can stand only once. Numbers after ± are expanded uncertainties.

`Nc1ccccc1` [aniline]: the mass density in data set [1] (293.15 K) is 1021.72 ± 0.27 kg/m3; in data set [1] (303.15 K), 1012.94 ± 0.27 kg/m3. Further, in data set [2] (293.15 K), the refractive index stood at 1.5862 ± 0.0004.

Take `NC1CCCCC1` [cyclohexylamine]: in data set [1] (303.15 K), the mass density came out at 858.2 ± 0.18 kg/m3. The “vapor or sublimation pressure” value was 7.51 ± 0.5 kPa in data set [1] (333.15 K) and 25.59 ± 0.58 kPa in data set [1] (363.15 K). In addition, the refractive index in data set [2] (288.15 K) is 1.4624 ± 0.0005.

Regarding `CCCCCCCCCC` [decane], the mass density in data set [1] (298.15 K) is 726.55 ± 0.38 kg/m3; in data set [1] (303.15 K) it was 722.54 ± 0.38 kg/m3. Also, in data set [2] (298.15 K), the refractive index turned out to be 1.4092 ± 0.0004.

As to `CCc1ccccc1` [ethylbenzene], the mass density in data set [1] (298.15 K) is 862.59 ± 0.19 kg/m3. Further, the refractive index in data set [2] (293.15 K) is given as 1.496 ± 0.0004.

On to `CCCCCCC` [heptane], for which the mass density in data set [1] (298.15 K) is reported as 679.43 ± 0.44 kg/m3; in data set [1] (303.15 K), 675.32 ± 0.44 kg/m3. Besides, the refractive index in data set [2] (298.15 K) came to 1.3853 ± 0.0004.

Regarding `CCCCCCCCC` [nonane], the mass density was determined as 719.13 ± 0.38 kg/m3 in data set [1] (293.15 K) and 710.05 ± 0.38 kg/m3 in data set [1] (303.15 K). Also, the refractive index in data set [2] (293.15 K) is given as 1.4055 ± 0.0004.

With `CCCCCCCC` [octane], the mass density worked out at 698.49 ± 0.39 kg/m3 in data set [1] (298.15 K) and 694.67 ± 0.39 kg/m3 in data set [1] (303.15 K). Moreover, the refractive index in data set [2] (298.15 K) stood at 1.3946 ± 0.0004.

For `Cc1ccccc1` [toluene], the mass density in data set [1] (293.15 K) was found to be 866.78 ± 0.19 kg/m3. Further, the “vapor or sublimation pressure” value was 18.56 ± 0.56 kPa in data set [1] (333.15 K) and 54.49 ± 0.72 kPa in data set [1] (363.15 K). For the same compound, the refractive index in data set [2] (293.15 K) is recorded as 1.496 ± 0.0004.

For `CCCCCCCCCCC` [undecane], the mass density is 740.11 ± 0.28 kg/m3 and 740.11 ± 0.36 kg/m3 in data set [1] (293.15 K); 732.93 ± 0.36 kg/m3 in data set [1] (303.15 K). For the same compound, the refractive index in data set [2] (293.15 K) is listed as 1.4162 ± 0.0004.

The values above are taken from the NIST ThermoML archive (doi:10.1021/je050316s).
